Measurements reported in ChEMBL document CHEMBL5042504 (J Med Chem, 2022).
The source made the active and inactive calls. No cut-off for these calls is given here.

Experiments:
MV4-11 [1] = experiment: Up regulation of acetylated histoneH4 in expression in human MV4-11 cells at 100 nM measured after 24 hrs by Western blot analysis; type: functional, cell-based
Histone deacetylase 7 = target: T1, Histone deacetylase 7 (Homo sapiens, UniProt Q8WUI4); experiment: Inhibition of human recombinant HDAC7 using Boc-Lys(triflouroacetyI)-AMC substrate incubated for 2 hrs by fluorescence based assay
T1 sequence (Q8WUI4 whole entry): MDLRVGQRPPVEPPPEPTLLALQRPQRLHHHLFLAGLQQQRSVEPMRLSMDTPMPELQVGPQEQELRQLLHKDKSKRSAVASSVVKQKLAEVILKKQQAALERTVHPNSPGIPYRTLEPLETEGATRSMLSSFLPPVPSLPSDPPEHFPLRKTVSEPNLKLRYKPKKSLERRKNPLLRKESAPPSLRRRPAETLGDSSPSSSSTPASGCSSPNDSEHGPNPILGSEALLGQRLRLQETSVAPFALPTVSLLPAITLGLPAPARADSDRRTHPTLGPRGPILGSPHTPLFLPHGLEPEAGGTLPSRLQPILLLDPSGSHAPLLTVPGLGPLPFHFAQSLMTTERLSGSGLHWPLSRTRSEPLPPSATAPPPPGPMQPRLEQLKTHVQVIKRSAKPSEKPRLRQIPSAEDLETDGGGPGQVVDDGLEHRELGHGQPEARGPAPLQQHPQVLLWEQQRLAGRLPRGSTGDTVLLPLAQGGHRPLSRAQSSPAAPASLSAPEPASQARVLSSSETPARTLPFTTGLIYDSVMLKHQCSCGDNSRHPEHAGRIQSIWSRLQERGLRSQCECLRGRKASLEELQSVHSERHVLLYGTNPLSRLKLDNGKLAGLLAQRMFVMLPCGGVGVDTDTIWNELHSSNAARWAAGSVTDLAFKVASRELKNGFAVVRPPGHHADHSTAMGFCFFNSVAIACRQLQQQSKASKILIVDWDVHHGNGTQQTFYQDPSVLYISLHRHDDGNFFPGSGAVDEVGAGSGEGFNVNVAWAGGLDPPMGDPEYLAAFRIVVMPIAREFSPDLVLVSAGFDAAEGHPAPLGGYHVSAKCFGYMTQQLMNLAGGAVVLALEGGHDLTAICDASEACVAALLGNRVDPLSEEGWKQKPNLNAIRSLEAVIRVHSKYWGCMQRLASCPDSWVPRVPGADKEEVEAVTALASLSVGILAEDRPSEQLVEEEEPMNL

Histone deacetylase 9 = Histone deacetylase 9 (Homo sapiens, UniProt Q9UKV0); experiment: Inhibition of human recombinant HDAC9 using Boc-Lys(triflouroacetyI)-AMC substrate incubated for 2 hrs by fluorescence based assay
Chain of Histone deacetylase 9 (Q9UKV0 whole entry): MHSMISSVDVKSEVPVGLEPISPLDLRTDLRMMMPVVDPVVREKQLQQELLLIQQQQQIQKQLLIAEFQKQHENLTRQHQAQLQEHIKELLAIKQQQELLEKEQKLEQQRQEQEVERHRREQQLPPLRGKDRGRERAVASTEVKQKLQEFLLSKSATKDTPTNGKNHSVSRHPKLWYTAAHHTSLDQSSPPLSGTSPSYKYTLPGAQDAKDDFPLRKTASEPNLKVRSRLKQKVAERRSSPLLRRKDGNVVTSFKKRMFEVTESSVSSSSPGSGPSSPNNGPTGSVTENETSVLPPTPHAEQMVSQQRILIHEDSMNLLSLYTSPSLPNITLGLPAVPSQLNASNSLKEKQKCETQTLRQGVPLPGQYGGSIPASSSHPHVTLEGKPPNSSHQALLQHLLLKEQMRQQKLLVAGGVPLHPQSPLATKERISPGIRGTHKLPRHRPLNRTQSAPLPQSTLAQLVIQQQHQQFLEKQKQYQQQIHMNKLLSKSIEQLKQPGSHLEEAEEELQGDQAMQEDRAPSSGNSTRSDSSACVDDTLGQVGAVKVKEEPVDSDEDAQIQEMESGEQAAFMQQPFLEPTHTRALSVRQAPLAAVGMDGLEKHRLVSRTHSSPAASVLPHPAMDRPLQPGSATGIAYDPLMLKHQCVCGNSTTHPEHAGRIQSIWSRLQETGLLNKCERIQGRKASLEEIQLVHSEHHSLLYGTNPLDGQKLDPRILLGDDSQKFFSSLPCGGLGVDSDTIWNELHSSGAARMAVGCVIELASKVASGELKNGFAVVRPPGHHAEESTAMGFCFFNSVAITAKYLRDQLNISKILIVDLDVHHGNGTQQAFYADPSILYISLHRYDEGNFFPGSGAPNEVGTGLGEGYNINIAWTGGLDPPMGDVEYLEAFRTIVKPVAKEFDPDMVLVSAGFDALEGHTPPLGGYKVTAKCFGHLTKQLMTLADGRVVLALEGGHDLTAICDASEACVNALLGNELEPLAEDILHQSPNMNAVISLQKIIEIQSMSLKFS

HL-60 [2] = experiment: Antiproliferative activity against human HL-60 cells assessed as reduction in cell viability after 48 hrs by multiplate reader method; details: HL-60, 48 h
MV4-11 [3] = experiment: Up regulation of acetylated histoneH4 ine expression in human MV4-11 cells at 200 nM measured after 24 hrs by Western blot analysis; type: functional, cell-based
MOLM-13 = experiment: Antiproliferative activity against human MOLM-13 cells assessed as reduction in cell viability measured after 48 hrs by multiplate reader method; details: MOLM-13, 48 h
[4] = Drug uptake in BALB/c mouse xenografted with human AML MV4-11 cells assessed as tumor tissue at 4 mg/kg ip measured after 0.5 to 6 hrs by LC-MS/MS; type: ADME, organism-based; details: in vivo, time 0.5-6 hrs
[5] = Drug distribution in BALB/c mouse lung measured at 4 mg/kg, po or ip after 2 to 8 hrs after 0.5 hrs; type: ADME, organism-based; details: in vivo, time 2-8 hrs
[6] = Half life in CD-1 mouse at 20 mg/kg, po measured upto 24 hrs; type: ADME, organism-based; details: in vivo
Histone deacetylase 3 [7] = target: T2, Histone deacetylase 3 (Homo sapiens, UniProt O15379); experiment: Inhibition of human recombinant HDAC3 using Boc-Lys(acetyl)-AMC substrate incubated for 2 hrs by fluorescence based assay
T2 sequence (O15379 whole entry): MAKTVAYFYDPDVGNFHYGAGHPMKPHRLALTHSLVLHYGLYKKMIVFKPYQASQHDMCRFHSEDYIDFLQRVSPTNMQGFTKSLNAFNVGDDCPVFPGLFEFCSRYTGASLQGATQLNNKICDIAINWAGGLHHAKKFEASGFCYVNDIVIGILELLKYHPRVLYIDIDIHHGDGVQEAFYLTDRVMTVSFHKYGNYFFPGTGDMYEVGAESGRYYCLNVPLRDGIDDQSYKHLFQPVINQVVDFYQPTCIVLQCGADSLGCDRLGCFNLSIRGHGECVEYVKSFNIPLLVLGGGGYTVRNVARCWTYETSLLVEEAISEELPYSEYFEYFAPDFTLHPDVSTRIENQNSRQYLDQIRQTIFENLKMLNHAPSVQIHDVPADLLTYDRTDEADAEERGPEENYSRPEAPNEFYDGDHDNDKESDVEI

MV4-11 [8] = experiment: Antitumor activity against human MV4-11 cells xenografted in BALB/c mouse assessed as inhibition of tumor growth at single administration for 4 mg/kg, po incubated for 0.5 to 8 hrs; type: functional, organism-based; details: time 0.5-8 hrs
Histone deacetylase 1 = Histone deacetylase 1 (Homo sapiens, UniProt Q13547); experiment: Inhibition of HDAC1 (unknown origin)preincubated upto 2 hrs by fluorescence based assay; details: time hrs <=2
Chain of Histone deacetylase 1 (Q13547 whole entry): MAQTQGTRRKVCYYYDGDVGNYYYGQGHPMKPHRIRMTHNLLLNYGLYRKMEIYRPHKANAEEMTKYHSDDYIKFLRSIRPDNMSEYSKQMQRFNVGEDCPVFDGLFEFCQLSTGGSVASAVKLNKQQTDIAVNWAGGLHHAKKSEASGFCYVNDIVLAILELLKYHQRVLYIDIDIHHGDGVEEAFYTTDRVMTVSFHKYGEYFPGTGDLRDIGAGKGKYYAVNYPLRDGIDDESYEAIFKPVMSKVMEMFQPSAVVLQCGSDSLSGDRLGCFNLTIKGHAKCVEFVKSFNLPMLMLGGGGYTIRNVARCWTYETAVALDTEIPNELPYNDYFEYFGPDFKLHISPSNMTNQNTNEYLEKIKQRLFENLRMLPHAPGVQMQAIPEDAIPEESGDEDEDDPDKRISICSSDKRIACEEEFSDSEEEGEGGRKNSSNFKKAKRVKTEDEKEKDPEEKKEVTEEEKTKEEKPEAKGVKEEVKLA

[9] = Antitumor activity against human MV4-11 cells xenografted in BALB/c mouse assessed as growth inhibition at 2 to 4 mg/kg, po ad; type: functional; details: dose 2-4 mg/kg, time 24 day
MV4-11 [10] = experiment: Antitumor activity against human MV4-11 cells xenografted in balb/c mouse assessed as accumulation of AcHH4 protein level at 4 mg/kg, po measured after 2 hrs; type: functional, organism-based
MV4-11 [11] = experiment: Antitumor activity against human MV4-11 cells xenografted in balb/c mouse assessed as accumulation of AcHH3 protein level at 4 mg/kg, po measured after 8 hrs; type: functional, organism-based
HL-60 [12] = experiment: Induction of apoptosis in human p53 null HL-60 cells assessed as […] at 500 nM measured after 24 hrs by FITC Annexin V/propidium iodide staining based flow cytometry (reference value: 20.55%); type: functional; details: read-out: Activity
Histone deacetylase 3 [13] = target: T2, Histone deacetylase 3; experiment: Inhibition of HDAC3(unknown origin) preincubated upto 2 hrs by fluorescence based assay; details: time hrs <=2
[14] = Toxicity in BALB/c mouse assessed as induction of pathological changes in liver by H and E staining based analysis; type: tissue-based; details: in vivo
Histone deacetylase 2 = Histone deacetylase 2 (Homo sapiens, UniProt Q92769); experiment: Inhibition of human recombinant HDAC2 using Boc-Lys(acetyl)-AMC substrate incubated for 2 hrs by fluorescence based assay
Chain of Histone deacetylase 2 (Q92769 whole entry): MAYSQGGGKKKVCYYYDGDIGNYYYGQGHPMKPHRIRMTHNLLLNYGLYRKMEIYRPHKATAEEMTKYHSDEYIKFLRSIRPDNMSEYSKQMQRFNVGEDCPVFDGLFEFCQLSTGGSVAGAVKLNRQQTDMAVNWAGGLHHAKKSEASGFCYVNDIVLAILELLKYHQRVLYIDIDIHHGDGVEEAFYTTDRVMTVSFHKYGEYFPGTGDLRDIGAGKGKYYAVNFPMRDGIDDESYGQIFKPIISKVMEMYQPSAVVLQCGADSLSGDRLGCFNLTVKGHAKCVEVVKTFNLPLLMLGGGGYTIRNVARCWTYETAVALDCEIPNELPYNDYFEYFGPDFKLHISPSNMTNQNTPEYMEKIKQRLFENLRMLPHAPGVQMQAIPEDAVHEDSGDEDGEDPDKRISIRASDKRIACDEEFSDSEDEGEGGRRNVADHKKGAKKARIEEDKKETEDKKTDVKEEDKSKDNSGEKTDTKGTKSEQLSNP

[15] = Drug distribution in tumor of BALB/c mouse xenografted with human MV4-11 cells assessed as measured after 2 hrs; type: ADME; details: read-out: Ct
MV4-11 [16] = experiment: Cell cycle arrest in human wt-p53 MV4-11 cells assessed as accumulation at G2/M-phase at 200 nM measured after 24 hrs realtive to control; type: functional, cell-based
Histone deacetylase 3 [17] = target: T2, Histone deacetylase 3; experiment: Non competitive type inhibition of human HDAC3 (unknown origin) by Lineweaver-Burk plot analysis
[18] = Drug distribution in BALB/c mouse spleen measured at 4 mg/kg, po or ip after 2 to 8 hrs after 0.5 hrs; type: ADME, organism-based; details: in vivo, time 2-8 hrs
[19] = Drug distribution in BALB/c mouse brain measured at 4 mg/kg, po or ip after 2 to 8 hrs after 0.5 hrs; type: ADME, organism-based; details: in vivo, time 2-8 hrs
[20] = Cmax in CD-1 mouse at 20 mg/kg, po measured upto 24 hrs; type: ADME, organism-based; parameters: route oral, dose 20 mg/kg, time <=24; details: CD-1, mouse, in vivo, read-out: Cmax
[21] = Oral bioavailability in CD-1 mouse at 20 mg/kg measured upto 24 hrs; type: ADME, organism-based; details: in vivo
[22] = Drug distribution in BALB/c mouse spleen measured at 4 mg/kg, po or ip after 0.5 hrs; type: ADME, organism-based; details: in vivo
[23] = Drug distribution in BALB/c mouse liver measured at 4 mg/kg, po or ip after 0.5 hrs after 0.5 hrs; type: ADME, organism-based; details: in vivo
[24] = Plasma concentration in BALB/c mouse xenografted with human AML MV4-11 cells at 4 mg/kg, ip; type: ADME, organism-based; details: in vivo
[25] = Plasma concentration in BALB/c mouse xenografted with human AML MV4-11 cells at 4 mg/kg, po; type: ADME, organism-based; details: in vivo

CCCNNC(=O)c1ccc(CNC(=O)/C=C/c2ccccc2)cc1
Activity (MV4-11 [1]): Active | IC50 (Histone deacetylase 7): > 5000 nM | IC50 (Histone deacetylase 9): > 5000 nM | IC50 (HL-60 [2]): 51.7 nM | Activity (MV4-11 [3]): Active | IC50 (MOLM-13): 103 nM

CCCNNC(=O)c1ccc(CNC(=O)c2cc3ccccc3[nH]2)cc1
Drug uptake [4]: Active | Drug uptake [5]: Active | half-life [6]: 2.58 h | IC50 (Histone deacetylase 3 [7]): 0.44 nM | Activity (MV4-11 [8]): Active | Activity (Histone deacetylase 1): Active | T/C [9]: 22.2% | Activity (MV4-11 [10]): Active | Activity (MV4-11 [11]): Active | viability at 0.5 µM (HL-60 [12]): 44.8% | Activity (Histone deacetylase 3 [13]): Active | Activity (MV4-11 [1]): Active | IC50 (Histone deacetylase 7): > 5000 nM | Activity [14]: Non-Toxic | IC50 (Histone deacetylase 9): > 5000 nM | IC50 (HL-60 [2]): 26.2 nM | Activity (MV4-11 [3]): Active | IC50 (Histone deacetylase 2): 18.5 nM | concentration at 2 h [15]: 882 ng/g | Activity (MV4-11 [16]): Active | IC50 (Histone deacetylase 3 [17]): 0.56 nM | Drug uptake [18]: Active | Drug uptake [19]: Active | Cmax [20]: 38800 ng/mL | IC50 (MOLM-13): 40.4 nM | F [21]: 112% | Drug uptake [22]: Active | Drug uptake [23]: Active | Drug uptake [24]: Active | Drug uptake [25]: Active
